Assay results: patent US20140256015A1, “CAGED COMPOUND WHICH CAN BE PHOTOACTIVATED SELECTIVELY FOR CELL TYPES” (Toho University, priority 2013, published 2014)

How the values were obtained:
[1] = UV spectrum (absorption wavelengths); type: physicochemical; conditions: 10^−5 M KMOPS solution (0.1% DMSO, pH 7.3)
Experimental: UV spectra were measured for the 10^−5 M KMOPS solution (0.1% DMSO, pH 7.3) of Gal-Bhcmoc-propargyl and the 10^−5 M KMOPS solution (0.1% DMSO, pH 7.3) of Bhcmoc-propargyl.

[2] = Photocleaving by 405 nm photoirradiation, monitored by C18 reverse phase HPLC; type: physicochemical; conditions: 10^−5 M KMOPS solution (0.1% DMSO, pH 7.3), irradiation 0 to 30 s (Bhcmoc-propargyl) or 0 to 300 s (Gal-Bhcmoc-propargyl)
Description: The 10^−5 M KMOPS solution (0.1% DMSO, pH 7.3) of Gal-Bhcmoc-propargyl or Bhcmoc-propargyl was irradiated with light with 405 nm. The reaction progress was monitored over photoirradiation time by C18 reverse phase HPLC.

[3] = biological target: β-Gal (Escherichia coli, UniProt P00722); assay: Conversion of Gal-Bhcmoc-propargyl to Bhcmoc-propargyl in the presence of β-Gal, followed by HPLC; type: biochemical; conditions: 15 μM compound, β-Gal 0.25 ng/μL, 0.1 M phosphate buffer pH 7.3, 37° C., after 1 hour
Chain of β-Gal (P00722 2-1024): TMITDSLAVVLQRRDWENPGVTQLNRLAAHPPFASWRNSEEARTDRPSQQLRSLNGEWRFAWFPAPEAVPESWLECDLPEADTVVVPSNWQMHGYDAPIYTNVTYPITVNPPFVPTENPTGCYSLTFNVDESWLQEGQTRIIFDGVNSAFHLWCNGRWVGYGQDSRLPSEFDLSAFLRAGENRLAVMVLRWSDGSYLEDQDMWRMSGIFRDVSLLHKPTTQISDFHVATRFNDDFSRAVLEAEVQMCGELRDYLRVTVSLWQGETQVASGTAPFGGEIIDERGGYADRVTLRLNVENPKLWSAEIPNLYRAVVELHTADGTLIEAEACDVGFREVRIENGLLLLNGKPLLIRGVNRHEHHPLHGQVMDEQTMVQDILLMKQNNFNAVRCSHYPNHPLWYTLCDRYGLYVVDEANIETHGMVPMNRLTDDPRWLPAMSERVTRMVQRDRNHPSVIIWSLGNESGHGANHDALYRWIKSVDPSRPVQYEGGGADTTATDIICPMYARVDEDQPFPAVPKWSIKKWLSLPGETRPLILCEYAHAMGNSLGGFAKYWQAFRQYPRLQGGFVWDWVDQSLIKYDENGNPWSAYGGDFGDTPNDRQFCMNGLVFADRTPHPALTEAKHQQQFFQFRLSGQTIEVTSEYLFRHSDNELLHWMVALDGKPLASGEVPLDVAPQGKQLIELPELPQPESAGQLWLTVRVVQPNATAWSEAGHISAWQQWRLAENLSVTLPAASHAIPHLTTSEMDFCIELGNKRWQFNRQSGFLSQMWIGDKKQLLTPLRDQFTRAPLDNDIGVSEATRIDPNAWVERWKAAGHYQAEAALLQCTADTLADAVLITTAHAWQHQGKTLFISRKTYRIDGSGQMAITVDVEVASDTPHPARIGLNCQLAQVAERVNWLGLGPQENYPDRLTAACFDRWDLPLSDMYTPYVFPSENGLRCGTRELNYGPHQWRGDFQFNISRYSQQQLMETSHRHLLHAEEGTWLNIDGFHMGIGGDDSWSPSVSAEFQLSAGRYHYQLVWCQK
Experimental: To 0.1 M phosphate buffer (pH 7.3) containing Gal-Bhcmoc-propargyl (final concentration of 15 μM), mercaptoethanol (0.11 M), and magnesium chloride (1 mM), β-Gal was added to a final concentration of 0.25 ng/μL. While the reaction solution was kept at 37° C., the reaction progress was followed by HPLC (see Table 2 for analytical conditions).

Structure (SMILES)	εmax [1] [M⁻¹ cm⁻¹]	λmax [1] [nm]	photocleaving (decrease of compound) on 405-nm photoirradiation [2]	conversion to Bhcmoc-propargyl (Bhc group) by β-Gal [3]
C#CCNC(=O)OCc1cc(=O)oc2cc(O)c(Br)cc12 [Bhcmoc-propargyl, (6-bromo-7-hydroxycoumarin-4-yl)methoxycarbonylpropargylamide]	17400	369	decreases in Bhcmoc-propargyl and increases in the photocleaved product could be confirmed	–
C#CCNC(=O)OCc1cc(=O)oc2cc(O[C@@H]3O[C@H](CO)[C@H](O)[C@H](O)[C@H]3O)c(Br)cc12 [Gal-Bhcmoc-propargyl]	–	–	no decrease was confirmed	completely converted
